Results reported in patent US8840898B2, “Immunoconjugates targeting syndecan-1 expressing cells and use thereof” (priority 2004, dated 2014).

Assays:
[1] = test system: CD138+ MM cell lines MM-1S, MM-1R and Ocy-My5; test: Colorimetric survival assay (MTT), CD138+ cells; format: cell-based, human; details: 1-50 nM or equimolar concentrations, up to 96 h
Description: (§1) Survival of CD138^+ and CD138^− cells upon administration of B-B4-DM1, B-B4 and DM1 was examined using a tetrazolium colorimetric assay (CellTiter 96® Non-Radioactive Cell Proliferation Assay; Promega, Wis.), as previously described (Mossmann, 1983). Cells (1×10^4) were plated in 24-well plates in 1 ml RPMI complete medium and then treated as indicated. At the end of each treatment, cells were incubated with 150 μl of Dye Solution and then incubated for 4 h at 37° C. A solubilization/stop solution was then added to each well under vigorous pipetting to dissolve the formazan crystals. Absorbance was measured at 570 nm, and cell viability was estimated as percentage of untreated controls. All experiments were repeated 3 times, and each experimental condition was repeated in triplicate wells in each experiment. Data reported are average values±SD of 3 representative experiments.
(§2) The effects of B-B4-DM1 on survival of CD138^+ (MM-1S, MM-1R, Ocy-My5) and CD138^− cells (SUDHL-4 and WSU-WM) were determined using an MTT assay. […] Cell survival was measured using an MTT assay. […] CD138^+ MM cell lines MM-1S, MM-1R and Ocy-My5 were evaluated as well as CD138^− cell lines including the lymphoma cell line SUDHL4 and the Waldestrom's Macroglobulinemia cell line WSU-WM.

[2] = test system: CD138- cell lines SUDHL4 and WSU-WM; test: Colorimetric survival assay (MTT), CD138- cells; format: cell-based, human; details: 1-50 nM or equimolar concentrations, up to 96 h
Description: as §1, §2

[3] = test system: CD138+ Ocy-My5 MM cells adherent to BMSC; test: Cell proliferation assay ([3H]-thymidine) on cells adherent to BMSC, Ocy-My5; format: cell-based, human; details: 10 nM, 72 h treatment
Description: (§3) The effect of B-B4-DM1 on cell proliferation was measured by the extent of [^3H]-thymidine (NEN Life Science Products, Boston, Mass.) incorporation. Cells (2×10^4 cells/well) were incubated in 96-well culture plates in the presence of 70%-80% confluent BMSCs at 37° C. with or without a test-agent (in triplicate wells). [^3H]-thymidine (0.5 μCi) was then added to each well for the last 8 h. Cells were harvested onto glass filters with an automatic cell harvester (Cambridge Technology, Cambridge, Mass.) and counted using a Micro-Beta® Trilux counter (Wallac, Gaithersburgh, Md.).
(§4) Since adhesion of MM cells to BMSC (bone marrow stromal cells) protects MM cells against drug-induced apoptosis, the effect of B-B4-DM1 on proliferation of CD138^+ (Ocy-My5) MM and CD138^− (SUDHL-4) LB cells adherent to BMSC was evaluated.
(§5) Ocy-My5 (FIG. 3A) or SUDHL-4 (FIG. 3B) cells (2×10^4) were seeded on 70%-80% confluent BMSC for 24 h. Cell proliferation was measured by [^3H]thymidine incorporation following 72 h treatment with B-B4-DM1 (10 nM). Values represent the mean [^3H]-TdR incorporation (cpm) of triplicate cultures.

[4] = test system: CD138- SUDHL-4 cells adherent to BMSC; test: Cell proliferation assay ([3H]-thymidine) on cells adherent to BMSC, SUDHL-4; format: cell-based, human; details: SUDHL-4 on BMSC; 10 nM; 72 h treatment
Description: as §3, §4, §5

CD138+ Ocy-My5 MM cells = test: Detection of apoptosis (Annexin V / PI); format: cell-based, human; details: 10 nM, 48 h exposure
Description: Dual staining with FITC-labeled Annexin V and propidium iodide (PI) was carried out to detect induction of apoptotic cell death by B-B4-DM1. After treatment of 1×10^6 tumor cells for 48 h, cells were washed with PBS and re-suspended in 100 µl of HEPES buffer containing Annexin V-FITC and propidium iodide (PI) (Annexin V-FLUOS staining kit; Roche Diagnostic, Indianapolis, Ind.). Following 15 min incubation at room temperature, cells were analyzed using a Coulter Epics XL flow cytometer for the presence of an Annexin V-FITC-positive/PI-negative apoptotic cell population.
[…] Apoptotic cell death was then measured by staining with annexin V and PI and flow cytometric analysis.
Percentages of stained cells are reported in each quadrant. […] Ocy-My5 MM cells were exposed to B-B4 mAb (13.3 μg/ml) or B-B4-DM1 (10 nM) for 48 h, labeled with PI, and analyzed using flow cytometry. Percentages of cells in the S-phase (S) and G2/M phase (G2) are indicated.

[5] = cited from earlier work
[6] = cited from earlier work; remark: listed apart in the source

Compound | Cell survival / growth (MTT assay) [1] | Cell survival / growth (MTT assay) [2] | Cell proliferation ([3H]thymidine incorporation) [3] | Cell proliferation ([3H]thymidine incorporation) [4] | annexin V+/PI- and annexin V+/PI+ fractions (apoptotic cell death) (CD138+ Ocy-My5 MM cells) | Cytotoxicity relative to maytansine ([5]; more cytotoxic) | Cytotoxicity relative to anti-cancer drugs in clinical use that affect tubulin polymerization (Vinca alkaloids, taxol) ([5]; higher) | Adverse effects in clinical trials [6]
COc1cc2cc(c1Cl)N(C)C(=O)C[C@H](OC(=O)[C@H](C)N(C)C(=O)CCS)[C@]1(C)O[C@H]1[C@H](C)[C@@H]1C[C@@](O)(NC(=O)O1)[C@H](OC)/C=C/C=C(\C)C2 [DM1, N^2-deacetyl-N^2-(3-mercapto-1-oxopropyl)-maytansine] | equally and highly cytotoxic | equally and highly cytotoxic | cytotoxic to both cell lines | cytotoxic to both cell lines | significant increase | 3- to 10 fold |  | 
COc1cc2cc(c1Cl)N(C)C(=O)C[C@H](OC(=O)[C@H](C)N(C)C(C)=O)[C@]1(C)O[C@H]1[C@H](C)[C@@H]1C[C@@](O)(NC(=O)O1)[C@H](OC)/C=C/C=C(\C)C2 [maytansine] |  |  |  |  |  |  | 200-1000 fold | serious adverse effects on the central nervous system and gastrointestinal system
